The results in this text go back to ChEMBL document CHEMBL1208771, “Improvement of both plasmepsin inhibitory activity and antimalarial activity by 2-aminoethylamino substitution” (Bioorg Med Chem Lett, 2010).

The target in one assay is Plasmepsin II (Plasmodium falciparum, UniProt P46925). In words: Inhibition of Plasmodium falciparum plasmepsin-2.
Assay [1] concerns Plasmodium falciparum. In words: Antiplasmodial activity against Plasmodium falciparum D6 infected in human erythrocytes by SYBR green I fluorescence assay. The format is functional, organism-based.
Assay [2] relates to Plasmodium falciparum. As to the kind of experiment: Ratio of compound EC50 to chloroquine EC50 for Plasmodium falciparum D6 infected in human erythrocytes. The format is functional.

Sequence of Plasmepsin II (P46925 whole entry): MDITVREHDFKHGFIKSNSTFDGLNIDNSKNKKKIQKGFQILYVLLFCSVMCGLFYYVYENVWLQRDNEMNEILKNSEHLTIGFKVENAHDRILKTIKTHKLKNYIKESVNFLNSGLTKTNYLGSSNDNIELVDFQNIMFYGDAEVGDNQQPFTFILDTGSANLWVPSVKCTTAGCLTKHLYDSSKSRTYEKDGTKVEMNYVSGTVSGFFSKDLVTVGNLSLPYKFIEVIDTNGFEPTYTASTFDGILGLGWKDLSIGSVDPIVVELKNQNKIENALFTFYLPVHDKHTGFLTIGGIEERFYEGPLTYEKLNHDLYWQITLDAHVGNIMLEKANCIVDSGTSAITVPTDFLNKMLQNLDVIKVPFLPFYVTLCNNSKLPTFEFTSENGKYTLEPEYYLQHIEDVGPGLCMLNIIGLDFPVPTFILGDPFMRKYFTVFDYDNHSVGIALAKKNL

`CCN(CCN)c1cc(C)c(OCC(=O)N[C@@H](Cc2ccccc2)[C@H](O)C(=O)N2CSC(C)(C)[C@H]2C(=O)N[C@H]2c3ccccc3C[C@H]2O)c(C)c1`: the Ki on Plasmepsin II is less than 0.1 nM. In addition, in the assay on Plasmodium falciparum [1], the midpoint of the response, the EC50, lay at 460 nM.

`CCNCCN(CC)c1cc(C)c(OCC(=O)N[C@@H](Cc2ccccc2)[C@H](O)C(=O)N2CSC(C)(C)[C@H]2C(=O)N[C@H]2c3ccccc3C[C@H]2O)c(C)c1` came in with a Ki on Plasmepsin II of 4.2 nM. This molecule also returned an EC50 with Plasmodium falciparum [1] of 790 nM.

As to `Cc1cc(NCc2ccccn2)cc(C)c1OCC(=O)N[C@@H](Cc1ccccc1)[C@H](O)C(=O)N1CSC(C)(C)[C@H]1C(=O)N[C@H]1c2ccccc2C[C@H]1O`, in the assay on Plasmodium falciparum [1], the EC50 turned out to be 560 nM. In turn, `Cc1cc(N(C)CCN)cc(C)c1OCC(=O)N[C@@H](Cc1ccccc1)[C@H](O)C(=O)N1CSC(C)(C)[C@H]1C(=O)N[C@H]1c2ccccc2C[C@H]1O` yielded a Ki at Plasmepsin II of 8.5 nM. Further, the EC50 with Plasmodium falciparum [1] came out at 1400 nM. Molecule `Cc1cc(NCCN(C)C)cc(C)c1OCC(=O)N[C@@H](Cc1ccccc1)[C@H](O)C(=O)N1CSC(C)(C)[C@H]1C(=O)N[C@H]1c2ccccc2C[C@H]1O` yielded a Ki on Plasmepsin II of 17 nM. Also, a half-maximal effect in the assay with Plasmodium falciparum [1] (EC50) was put at 2000 nM. On Plasmepsin II, `CCN(CC)CCN(CC)c1cc(C)c(OCC(=O)N[C@@H](Cc2ccccc2)[C@H](O)C(=O)N2CSC(C)(C)[C@H]2C(=O)N[C@H]2c3ccccc3C[C@H]2O)c(C)c1` displayed a Ki of 10 nM. In the assay on Plasmodium falciparum [1], this molecule registered an EC50 of 1100 nM.

As for `Cc1cc(N(C)CCN(C)C)cc(C)c1OCC(=O)N[C@@H](Cc1ccccc1)[C@H](O)C(=O)N1CSC(C)(C)[C@H]1C(=O)N[C@H]1c2ccccc2C[C@H]1O`, the Ki on Plasmepsin II is less than 0.1 nM. Also, the EC50 in the assay on Plasmodium falciparum [1] turned out to be 360 nM. In turn, `CNCCNc1cc(C)c(OCC(=O)N[C@@H](Cc2ccccc2)[C@H](O)C(=O)N2CSC(C)(C)[C@H]2C(=O)N[C@H]2c3ccccc3C[C@H]2O)c(C)c1` had an inhibitory constant (Ki) on Plasmepsin II of 9.1 nM. The EC50 in the assay with Plasmodium falciparum [1] came to 1400 nM. On Plasmepsin II, `CCN(CC)CCNc1cc(C)c(OCC(=O)N[C@@H](Cc2ccccc2)[C@H](O)C(=O)N2CSC(C)(C)[C@H]2C(=O)N[C@H]2c3ccccc3C[C@H]2O)c(C)c1` registered a Ki of 5.1 nM. In addition, in the assay with Plasmodium falciparum [1], the EC50 turned out to be 1600 nM. In the case of `Cc1cccc(C)c1OCC(=O)N[C@@H](Cc1ccccc1)[C@H](O)C(=O)N1CSC(C)(C)[C@H]1C(=O)N[C@H]1c2ccccc2C[C@H]1O`, a half-maximal effect in the assay with Plasmodium falciparum [1] (EC50) was put at 5000 nM. For the molecule `CCN(CC)CCCC(C)Nc1ccnc2cc(Cl)ccc12` (stereo unspecified) [CHLOROQUINE], the EC50 in the assay with Plasmodium falciparum [1] stood at 20 nM. `Cc1cc(NCCN)cc(C)c1OCC(=O)N[C@@H](Cc1ccccc1)[C@H](O)C(=O)N1CSC(C)(C)[C@H]1C(=O)N[C@H]1c2ccccc2C[C@H]1O` came in with an inhibitory constant (Ki) on Plasmepsin II of 6.5 nM. In addition, a half-maximal response in the assay with Plasmodium falciparum [1] (EC50) required 290 nM.

For the molecule `CNCCN(C)c1cc(C)c(OCC(=O)N[C@@H](Cc2ccccc2)[C@H](O)C(=O)N2CSC(C)(C)[C@H]2C(=O)N[C@H]2c3ccccc3C[C@H]2O)c(C)c1`, the Ki at Plasmepsin II came to 1.2 nM. In the assay on Plasmodium falciparum [1], the EC50 was found to be 190 nM. In the assay with Plasmodium falciparum [2], the “Ratio EC50” value stood at 10.

As to `CCNCCNc1cc(C)c(OCC(=O)N[C@@H](Cc2ccccc2)[C@H](O)C(=O)N2CSC(C)(C)[C@H]2C(=O)N[C@H]2c3ccccc3C[C@H]2O)c(C)c1`, the Ki on Plasmepsin II amounted to 0.68 nM. Moreover, it took 220 nM to reach a half-maximal effect in the assay with Plasmodium falciparum [1] (EC50).

One may read the Ki as the equilibrium dissociation constant of an inhibitor or competing ligand from its target. Lower therefore signals a stronger hold on the target. The EC50 is the concentration that produces a half-maximal response.
